Laboratory results published in patent publication US5231107A, “Derivatives of the oxime of 1,2,5,6-tetrahydropyridine 3-carboxaldehyde, the process for their preparation, their use as medicaments and the compositions containing them” (priority 1987, dated 1993).
Read-outs that look alike come from different tables or passages of the source.

Experiments:
[1] = tested on: ileum isolated from guinea-pig; assay: Test of ileum isolated from guinea-pig; conditions: Cavia porcellus, agonist activity, Tyrode solution, 37° C., read-out: pD2 (negative logarithm of the dose which produces 50% of the maximum effect) (converted)
Method: Pieces of ileum are removed from guinea-pigs killed by decapitation. The isolated ileum is placed in 10 cm^3 of Tyrode solution at 37° C. and aerated with a mixture of oxygen (95%) and carbon dioxide gas (5%). The contractions due to the products are registered by means of a detector connected to a polygraph. […].
The possible antagonist activity of the products is tested vis-a-vis acetylcholine.
The agonist activity is expressed in pD2 (negative logarithm of the dose which produces 50% of the maximum effect).
The antagonist activity is expressed in DE50 (dose reducing by 50% the maximum response induced by acetylcholine).

in vivo [2] = assay: in vivo; parameters: species or system male mice (CD1 Charles Rivers); conditions: mouse, in vivo; oral route; male CD1 mice; method of Miller and Tainter; read-out: DE50 (dose which causes diarrhoea in 50% of the animals)
Method: The test is carried out on male mice (CD1 Charles Rivers) weighing 25 to 30 g, which have fasted for 6 hours. The product dissolved at 5% in methocel is administered by oral route by means of an oesophage probe.
Control animals receive only the excipient.
After treatment, the animals are placed separately in cages of which the base is covered with blotting paper, and they are put under observation for 30, 60, 120 and 180 minutes.
The sheets of absorbent paper are changed after each observation.
The consistency of the feces is evaluated according to the method of Randall and Baruth (Arch. Int. Pharmacodyn. 220, 94, 1976) according to the following scale of values.
1: feces slightly soft, with or without a damp halo,
2: feces slightly soft, with a well-defined circle of humidity,
3: feces soft with a large circle of humidity,
4: feces without consistency with a very large circle of humidity.
For each product, the dose is noted which causes diarrhoea in 50% of the animals according to the method of Miller and Tainter (Proc. Soc. Exp. Biol. Med., 57, 261, 1944).

in vivo [3] = conditions: mouse, po
Method: The test was carried out on male mice (CD1 Charles Rivers), of 22 to 24 g, without food for 16 hours. […] The mortality is noted during the 7 days following the treatment.

Hypothermic activity = type: in vivo, male mice (CD1 Charles Rivers); conditions: Mus musculus, read-out: Effective dose (-1° C.)
Method: (§1) The test is carried out on male mice (CD1 Charles Rivers) weighing 25-30 g, which have fasted for 6 hours.
The temperature of the body is noted by means of a thermocouple inserted about 1.5 cm in the rectum and connected to an electric temperature recorder.
The products are administered by oral or sub-cutaneous route and the temperatures are noted at the instant 0 and at 30 minutes, 1 hour, 2 hours and 2-and-a-half hours after treatment.
The degree of hypothermia is evaluated as the difference between the treated animals and the controls, and the dose necessary to reduce the body temperature by 1° C. is noted.

[4] = Variation of the body temperature (duration of action); type: in vivo, male mice (CD1 Charles Rivers)
Method: as §1
The temperature of the body is noted by means of a thermocouple inserted about 1.5 cm in the rectum and connected to an electric temperature recorder. […]
The duration of action of the products is determined, using the doses able to reduce the temperature by 1° to 1.5° C.

Q: What does the source list for `CON=CC1=CCCN(C(=O)Oc2ccc(C)cc2)C1` [Example 21, 1-(4-methylphenyloxycarbonyl)-1,2,5,6-tetrahydropyridine-3-carboxaldehyde-O-methyloxime]?
A: EC50 [1]: > 100 µM; ED50 (in vivo [2]): > 50 mg/kg; LD50 at 168 h (in vivo [3]): 250 mg/kg; ED (-1 C) (Hypothermic activity; oral route (O.R.)): 1.5 mg/kg; ED (-1 C) (Hypothermic activity; sub-cutaneous route (SC.R)): 1.2 mg/kg

Q: What does the source list for `CON=CC1=CCCN(C(=O)Oc2ccc(OC)c(OC)c2)C1` [Example 14]?
A: EC50 [1]: > 100 µM; ED50 (in vivo [2]): > 50 mg/kg; Variations of the body temperature ([4]; 1. mg/kg os, 0 min): +0.1 °C; Variations of the body temperature ([4]; 1. mg/kg os, 30 min): -1.1 °C; Variations of the body temperature ([4]; 1. mg/kg os, 60 min): -1.4 °C; Variations of the body temperature ([4]; 1. mg/kg os, 120 min): -0.2 °C; Variations of the body temperature ([4]; 1. mg/kg os, 180 min): +0.1 °C; Variations of the body temperature ([4]; 1. mg/kg sc, 0 min): +0.2 °C; Variations of the body temperature ([4]; 1. mg/kg sc, 30 min): -0.7 °C; Variations of the body temperature ([4]; 1. mg/kg sc, 60 min): -1.3 °C; Variations of the body temperature ([4]; 1. mg/kg sc, 120 min): -0.5 °C; LD50 at 168 h (in vivo [3]): 175 mg/kg; ED (-1 C) (Hypothermic activity; oral route (O.R.)): 0.7 mg/kg; ED (-1 C) (Hypothermic activity; sub-cutaneous route (SC.R)): 0.7 mg/kg

Q: Which EC50 [1] does the source give for `CON=CC1=CCCN(C(=O)Oc2ccc(C(C)(C)CC(C)(C)C)cc2)C1` [Example 22, 1-[4-(1,1,3,3-tetramethylbutyl)phenyloxycarbonyl]-1,2,5,6-tetrahydropyridine-3-carboxaldehyde-O-methyloxime] here?
A: 100 µM

Q: And the ED50 (in vivo [2])?
A: > 50 mg/kg

Q: What about the LD50 at 168 h (in vivo [3]) of the same compound?
A: 500 mg/kg

Q: What about the ED (-1 C) (Hypothermic activity; oral route (O.R.)) of the same compound?
A: 7 mg/kg

Q: And the ED (-1 C) (Hypothermic activity; sub-cutaneous route (SC.R))?
A: 15 mg/kg

Q: For `COC(=O)C1=CCCN(C)C1` [Arecoline HBr, reference compound], which “Variations of the body temperature” value ([4]; 3.5 mg/kg sc, 0 min) is on record?
A: -0.1 °C

Q: And the “Variations of the body temperature” value ([4]; 3.5 mg/kg sc, 30 min)?
A: -1.5 °C

Q: And the “Variations of the body temperature” value ([4]; 3.5 mg/kg sc, 60 min)?
A: -0.1 °C

Q: And the “Variations of the body temperature” value ([4]; 3.5 mg/kg sc, 120 min)?
A: +0.2 °C

Q: What about the “Variations of the body temperature” value ([4]; 3.5 mg/kg sc, 180 min) of the same compound?
A: +0.2 °C

Q: What about the “Variations of the body temperature” value ([4]; 200 mg/kg os, 0 min) of the same compound?
A: +0.1 °C

Q: And the “Variations of the body temperature” value ([4]; 200 mg/kg os, 30 min)?
A: -1.1 °C

Q: What about the “Variations of the body temperature” value ([4]; 200 mg/kg os, 60 min) of the same compound?
A: -1.0 °C

Q: What about the “Variations of the body temperature” value ([4]; 200 mg/kg os, 120 min) of the same compound?
A: -0.2 °C

Q: What about the “Variations of the body temperature” value ([4]; 200 mg/kg os, 180 min) of the same compound?
A: -0.1 °C

Q: For `C=CCOC(=O)N1CCC=C(C=NOC)C1` [Example 4, Methyl ether of 1-allyloxycarbonyl-1,2,5,6-tetrahydropyridin-3-carboxaldehyde oxime], which EC50 [1] is on record?
A: > 100 µM

Q: What about the ED50 (in vivo [2]) of the same compound?
A: 3 mg/kg

Q: And the “Variations of the body temperature” value ([4]; 2. mg/kg os, 0 min)?
A: -0.1 °C

Q: What about the “Variations of the body temperature” value ([4]; 2. mg/kg os, 30 min) of the same compound?
A: -1.2 °C

Q: And the “Variations of the body temperature” value ([4]; 2. mg/kg os, 60 min)?
A: -1.1 °C

Q: And the “Variations of the body temperature” value ([4]; 2. mg/kg os, 120 min)?
A: -0.1 °C

Q: And the “Variations of the body temperature” value ([4]; 2. mg/kg os, 180 min)?
A: -0.1 °C

Q: And the “Variations of the body temperature” value ([4]; 2. mg/kg sc, 0 min)?
A: -0.1 °C

Q: And the “Variations of the body temperature” value ([4]; 2. mg/kg sc, 30 min)?
A: -0.9 °C

Q: What about the “Variations of the body temperature” value ([4]; 2. mg/kg sc, 60 min) of the same compound?
A: -1.0 °C

Q: What about the “Variations of the body temperature” value ([4]; 2. mg/kg sc, 120 min) of the same compound?
A: -0.2 °C

Q: And the “Variations of the body temperature” value ([4]; 2. mg/kg sc, 180 min)?
A: -0.1 °C

Q: And the LD50 at 168 h (in vivo [3])?
A: 175 mg/kg

Q: What about the ED (-1 C) (Hypothermic activity; oral route (O.R.)) of the same compound?
A: 1.6 mg/kg

Q: And the ED (-1 C) (Hypothermic activity; sub-cutaneous route (SC.R))?
A: 1.8 mg/kg
